Test results as given in patent publication US20250049033A1, “PESTICIDALLY ACTIVE PYRIDAZINONE COMPOUNDS” (SYNGENTA CROP PROTECTION AG, priority 2021, published 2025).

How the values were obtained:
Type in all cases: in vivo
Chilo suppressalis = test: Activity against Chilo suppressalis (striped rice stemborer), artificial diet, L2 larvae; settings: 144 h, application rate 200 ppm, 6 days after infestation, vs untreated, read-out: control in at least one of the three categories (mortality, anti-feedant effect, or growth inhibition)
Description: Example B1: Activity Against Chilo suppressalis (Striped Rice Stemborer)
24-well microtiter plates with artificial diet were treated with aqueous test solutions prepared from 10′000 ppm DMSO stock solutions by pipetting. After drying, the plates were infested with L2 larvae (6-8 per well). The samples were assessed for mortality, anti-feeding effect, and growth inhibition in comparison to untreated samples 6 days after infestation. Control of Chilo suppressalis by a test sample is given when at least one of the categories mortality, anti-feedant effect, and growth inhibition is higher than the untreated sample.

Diabrotica balteata = test: Activity against Diabrotica balteata (corn root worm), maize sprouts, L2 larvae; settings: 96 h, application rate 200 ppm, 4 days after infestation, vs untreated, read-out: control in at least one of the two categories (mortality or growth inhibition)
Description: Example B2: Activity Against Diabrotica balteata (Corn Root Worm)
Maize sprouts placed onto an agar layer in 24-well microtiter plates were treated with aqueous test solutions prepared from 10′000 ppm DMSO stock solutions by spraying. After drying, the plates were infested with L2 larvae (6 to 10 per well). The samples were assessed for mortality and growth inhibition in comparison to untreated samples 4 days after infestation.

Euschistus heros = test: Activity against Euschistus heros (neotropical brown stink bug), soybean leaves, N2 nymphs; settings: 120 h, application rate 200 ppm, 5 days after infestation, vs untreated, read-out: effect in at least one of the two categories (mortality or growth inhibition)
Description: Example B3: Activity Against Euschistus heros (Neotropical Brown Stink Bug)
Soybean leaves on agar in 24-well microtiter plates were sprayed with aqueous test solutions prepared from 10′000 ppm DMSO stock solutions. After drying the leaves were infested with N2 nymphs. The samples were assessed for mortality and growth inhibition in comparison to untreated samples 5 days after infestation.

Myzus persicae [1] = test: Activity against Myzus persicae (green peach aphid), feeding/contact activity; settings: foliar, 144 h, application rate 200 ppm, 6 days after infestation, sunflower leaf discs, mixed ages
Description: Example B5: Activity Against Myzus persicae (Green Peach Aphid). Feeding/Contact Activity
Sunflower leaf discs were placed onto agar in a 24-well microtiter plate and sprayed with aqueous test solutions prepared from 10′000 ppm DMSO stock solutions. After drying, the leaf discs were infested with an aphid population of mixed ages. The samples were assessed for mortality 6 days after infestation.

Myzus persicae [2] = test: Activity against Myzus persicae (green peach aphid), intrinsic activity; settings: 120 h, test rate 12 ppm, 5 days after infestation, sucrose solution through Parafilm
From the text: Example B6: Activity Against Myzus persicae (Green Peach Aphid). Intrinsic Activity
Test compounds prepared from 10′000 ppm DMSO stock solutions were applied by pipette into 24-well microtiter plates and mixed with sucrose solution. The plates were closed with a stretched Parafilm. A plastic stencil with 24 holes was placed onto the plate and infested pea seedlings were placed directly on the Parafilm. The infested plate was closed with a gel blotting paper and another plastic stencil and then turned upside down. The samples were assessed for mortality 5 days after infestation.

Plutella xylostella = test: Activity against Plutella xylostella (diamond back moth), artificial diet, eggs; settings: 192 h, application rate 200 ppm, 8 days after infestation, vs untreated, read-out: control in at least one of the two categories (mortality or growth inhibition)
Description: Example B7: Activity Against Plutella xylostella (Diamond Back Moth)
24-well microtiter plates with artificial diet were treated with aqueous test solutions prepared from 10′000 ppm DMSO stock solutions by pipetting. After drying, Plutella eggs were pipetted through a plastic stencil onto a gel blotting paper and the plate was closed with it. The samples were assessed for mortality and growth inhibition in comparison to untreated samples 8 days after infestation. The following compounds gave an effect of at least 80% control in at least one of the two categories (mortality or growth inhibition) at an application rate of 200 ppm: P1, P2, P3, P4, P6, P7, P8, P9, P10, P11, P12, P13, P14, P15, P16, P17, P18, P19, P20, P21, P22, P23, P24, P25, P26, P27.

Spodoptera littoralis = test: Activity against Spodoptera littoralis (Egyptian cotton leaf worm), cotton leaf discs, L1 larvae; settings: foliar, 72 h, application rate 200 ppm, 3 days after infestation, vs untreated, read-out: control in at least one of the three categories (mortality, anti-feedant effect, or growth inhibition)
Description: Example B8: Activity Against Spodoptera littoralis (Egyptian Cotton Leaf Worm)
Cotton leaf discs were placed onto agar in 24-well microtiter plates and sprayed with aqueous test solutions prepared from 10′000 ppm DMSO stock solutions. After drying the leaf discs were infested with five L1 larvae. The samples were assessed for mortality, anti-feeding effect, and growth inhibition in comparison to untreated samples 3 days after infestation. Control of Spodoptera littoralis by a test sample is given when at least one of the categories mortality, anti-feedant effect, and growth inhibition is higher than the untreated sample.

CC(c1nccnc1-c1ccc(=O)n(C)n1)N(C)c1ncnc2c(C(F)(F)F)cc(Cl)cc12 (racemic) [P21, 6-[3-[1-[[6-chloro-8-(trifluoromethyl)quinazolin-4-yl]-methyl-amino]ethyl]pyrazin-2-yl]-2-methyl-pyridazin-3-one]
≥ 80%: percent control (mortality, anti-feedant effect or growth inhibition) at 200 ppm (Chilo suppressalis) | percent control (mortality or growth inhibition) at 200 ppm (Diabrotica balteata) | percent effect (mortality or growth inhibition) at 200 ppm (Euschistus heros) | mortality at 200 ppm (Myzus persicae [1]) | mortality at 12 ppm (Myzus persicae [2]) | percent control (mortality or growth inhibition) at 200 ppm (Plutella xylostella) | percent control (mortality, anti-feedant effect or growth inhibition) at 200 ppm (Spodoptera littoralis)

C[C@H](Nc1nc(=O)n(C)c2c(Cl)cc(C(F)(F)F)cc12)c1ncnn1-c1ccc(=O)n(C)n1 [P1, 8-chloro-1-methyl-4-[[(1S)-1-[2-(1-methyl-6-oxo-pyridazin-3-yl)-1,2,4-triazol-3-yl]ethyl]amino]-6-(trifluoromethyl)quinazolin-2-one]
≥ 80%: percent control (mortality, anti-feedant effect or growth inhibition) at 200 ppm (Chilo suppressalis) | percent effect (mortality or growth inhibition) at 200 ppm (Euschistus heros) | percent control (mortality or growth inhibition) at 200 ppm (Plutella xylostella)

C[C@H](Nc1ncnc2c(C(F)(F)F)cc(Cl)cc12)c1ncnn1-c1ccc(=O)n(C)n1 [P2, 6-[5-[(1S)-1-[[6-chloro-8-(trifluoromethyl)quinazolin-4-yl]amino]ethyl]-1,2,4-triazol-1-yl]-2-methyl-pyridazin-3-one]
≥ 80%: percent control (mortality, anti-feedant effect or growth inhibition) at 200 ppm (Chilo suppressalis) | percent control (mortality or growth inhibition) at 200 ppm (Diabrotica balteata) | percent effect (mortality or growth inhibition) at 200 ppm (Euschistus heros) | mortality at 200 ppm (Myzus persicae [1]) | percent control (mortality or growth inhibition) at 200 ppm (Plutella xylostella) | percent control (mortality, anti-feedant effect or growth inhibition) at 200 ppm (Spodoptera littoralis)

C[C@H](Nc1ncnc2c(C(F)(F)F)cc(C(F)(F)F)cc12)c1ncnn1-c1ccc(=O)n(C)n1 [P3, 6-[5-[(1S)-1-[[6,8-bis(trifluoromethyl)quinazolin-4-yl]amino]ethyl]-1,2,4-triazol-1-yl]-2-methyl-pyridazin-3-one]
≥ 80%: percent control (mortality, anti-feedant effect or growth inhibition) at 200 ppm (Chilo suppressalis) | percent control (mortality or growth inhibition) at 200 ppm (Diabrotica balteata) | percent effect (mortality or growth inhibition) at 200 ppm (Euschistus heros) | mortality at 200 ppm (Myzus persicae [1]) | mortality at 12 ppm (Myzus persicae [2]) | percent control (mortality or growth inhibition) at 200 ppm (Plutella xylostella) | percent control (mortality, anti-feedant effect or growth inhibition) at 200 ppm (Spodoptera littoralis)

C[C@H](Nc1nc(Cl)nc2c(Cl)cc(C(F)(F)F)cc12)c1ncnn1-c1ccc(=O)n(C)n1 [P4, 6-[5-[(1S)-1-[[2,8-dichloro-6-(trifluoromethyl)quinazolin-4-yl]amino]ethyl]-1,2,4-triazol-1-yl]-2-methyl-pyridazin-3-one]
≥ 80%: percent control (mortality, anti-feedant effect or growth inhibition) at 200 ppm (Chilo suppressalis) | percent control (mortality or growth inhibition) at 200 ppm (Diabrotica balteata) | mortality at 200 ppm (Myzus persicae [1]) | percent control (mortality or growth inhibition) at 200 ppm (Plutella xylostella)

C[C@H](Nc1ncnc2c(I)cc(Cl)cc12)c1ncnn1-c1ccc(=O)n(C)n1 [P11, 6-[5-[(1S)-1-[(6-chloro-8-iodo-quinazolin-4-yl)-amino]ethyl]-1,2,4-triazol-1-yl]-2-methyl-pyridazin-3-one]
≥ 80%: percent control (mortality, anti-feedant effect or growth inhibition) at 200 ppm (Chilo suppressalis) | percent effect (mortality or growth inhibition) at 200 ppm (Euschistus heros) | mortality at 12 ppm (Myzus persicae [2]) | percent control (mortality or growth inhibition) at 200 ppm (Plutella xylostella) | percent control (mortality, anti-feedant effect or growth inhibition) at 200 ppm (Spodoptera littoralis)

C[C@@H](c1ncnn1-c1ccc(=O)n(C)n1)N(C)c1ncnc2c(Br)cc(Br)cc12 [P14, 6-[5-[(1S)-1-[(6,8-dibromoquinazolin-4-yl)-methyl-amino]ethyl]-1,2,4-triazol-1-yl]-2-methyl-pyridazin-3-one]
≥ 80%: percent control (mortality or growth inhibition) at 200 ppm (Diabrotica balteata) | percent effect (mortality or growth inhibition) at 200 ppm (Euschistus heros) | mortality at 200 ppm (Myzus persicae [1]) | mortality at 12 ppm (Myzus persicae [2]) | percent control (mortality or growth inhibition) at 200 ppm (Plutella xylostella) | percent control (mortality, anti-feedant effect or growth inhibition) at 200 ppm (Spodoptera littoralis)

C[C@H](Nc1ncnc2c(Cl)cc(C(F)(F)F)cc12)c1ncnn1-c1ccc(=O)n(C)n1 [P16, 6-[5-[(1S)-1-[[8-chloro-6-(trifluoro-methyl)quinazolin-4-yl]amino]ethyl]-1,2,4-triazol-1-yl]-2-methyl-pyrid-azin-3-one]
≥ 80%: percent control (mortality, anti-feedant effect or growth inhibition) at 200 ppm (Chilo suppressalis) | percent control (mortality or growth inhibition) at 200 ppm (Diabrotica balteata) | percent effect (mortality or growth inhibition) at 200 ppm (Euschistus heros) | mortality at 12 ppm (Myzus persicae [2]) | percent control (mortality or growth inhibition) at 200 ppm (Plutella xylostella) | percent control (mortality, anti-feedant effect or growth inhibition) at 200 ppm (Spodoptera littoralis)

C[C@H](Nc1ncnc2c(Br)cc(Br)cc12)c1ncnn1-c1ccc(=O)n(C)n1 [P18, 6-[5-[(1S)-1-[(6,8-dibromoquinazolin-4-yl)amino]ethyl]-1,2,4-triazol-1-yl]-2-methyl-pyridazin-3-one]
≥ 80%: percent control (mortality or growth inhibition) at 200 ppm (Plutella xylostella)

C[C@H](Nc1ncnc2c(Cl)cc(I)cc12)c1ncnn1-c1ccc(=O)n(C)n1 [P20, 6-[5-[(1S)-1-[(8-chloro-6-iodo-quinazolin-4-yl)-amino]ethyl]-1,2,4-triazol-1-yl]-2-methyl-pyridazin-3-one]
≥ 80%: mortality at 200 ppm (Myzus persicae [1]) | percent control (mortality or growth inhibition) at 200 ppm (Plutella xylostella)

C[C@@H](c1ncnn1-c1ccc(=O)n(C)n1)N(C)c1ncnc2c(Cl)cc(C(F)(F)F)cc12 [P23, 6-[5-[(1S)-1-[[8-chloro-6-(trifluoro-methyl)quinazolin-4-yl]-methyl-amino]ethyl]-1,2,4-triazol-1-yl]-2-methyl-pyr-idazin-3-one]
≥ 80%: percent control (mortality, anti-feedant effect or growth inhibition) at 200 ppm (Chilo suppressalis) | percent control (mortality or growth inhibition) at 200 ppm (Diabrotica balteata) | percent effect (mortality or growth inhibition) at 200 ppm (Euschistus heros) | mortality at 12 ppm (Myzus persicae [2]) | percent control (mortality or growth inhibition) at 200 ppm (Plutella xylostella) | percent control (mortality, anti-feedant effect or growth inhibition) at 200 ppm (Spodoptera littoralis)

C[C@H](Nc1ncnc2c(I)cc(Cl)cc12)c1ncnn1C1=NN(C)C(=O)CC1 [P25, 6-[5-[(1S)-1-[(6-chloro-8-iodo-quinazolin-4-yl)amino]ethyl]-1,2,4-triazol-1-yl]-2-methyl-4,5-dihydropyridazin-3-one]
≥ 80%: percent control (mortality, anti-feedant effect or growth inhibition) at 200 ppm (Chilo suppressalis) | percent control (mortality or growth inhibition) at 200 ppm (Diabrotica balteata) | percent effect (mortality or growth inhibition) at 200 ppm (Euschistus heros) | mortality at 12 ppm (Myzus persicae [2]) | percent control (mortality or growth inhibition) at 200 ppm (Plutella xylostella) | percent control (mortality, anti-feedant effect or growth inhibition) at 200 ppm (Spodoptera littoralis)

C[C@@H](c1ncnn1C1=NN(C)C(=O)CC1)N(C)c1ncnc2c(I)cc(Cl)cc12 [P26, 6-[5-[(1S)-1-[(6-chloro-8-iodo-quinazolin-4-yl)-methyl-amino]ethyl]-1,2,4-triazol-1-yl]-2-methyl-4,5-dihydropyridazin-3-one]
≥ 80%: percent control (mortality, anti-feedant effect or growth inhibition) at 200 ppm (Chilo suppressalis) | percent control (mortality or growth inhibition) at 200 ppm (Diabrotica balteata) | percent effect (mortality or growth inhibition) at 200 ppm (Euschistus heros) | mortality at 12 ppm (Myzus persicae [2]) | percent control (mortality or growth inhibition) at 200 ppm (Plutella xylostella) | percent control (mortality, anti-feedant effect or growth inhibition) at 200 ppm (Spodoptera littoralis)
